Experimental data as given in PubChem BioAssay AID1963835 (Molecular Pharmacology Branch, DTP, NCI, 2024).

Test system: 699152-130-R-J1-PDC complex spheroid viability
Assay: Anticancer human tumor 699152-130-R-J1-PDC patient-derived pancreatic carcinoma cell line growth inhibition [POLQ]
Conditions: for IC50: curve of first compound; for viability, T/C: stronger effect = lower value
Summary of the method: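 Patient-derived tumour cells were co-cultured with HUVEC and mesenchymal stem cells as multicellular spheroids at 37 °C. They were treated with POLQ inhibitors (novobiocin, ART-558, RP6685) alone or combined with other agents. Top concentrations were at or near clinical Cmax (otherwise 10 microM; SN-38 at 1 microM), decreasing in half-log steps.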

[1] = second compound 0.0316 µM, first compound 0.0316 µM
[2] = second compound 0.0316 µM, first compound 0.1 µM
[3] = second compound 0.0316 µM, first compound 0.316 µM
[4] = second compound 0.0316 µM, first compound 1 µM
[5] = second compound 0.0316 µM, first compound 3.16 µM
[6] = second compound 0.0316 µM, first compound 10 µM
[7] = second compound 0.1 µM, first compound 0.0316 µM
[8] = second compound 0.1 µM, first compound 0.1 µM
[9] = second compound 0.1 µM, first compound 0.316 µM
[10] = second compound 0.1 µM, first compound 1 µM
[11] = second compound 0.1 µM, first compound 3.16 µM
[12] = second compound 0.1 µM, first compound 10 µM
[13] = second compound 0.316 µM, first compound 0.0316 µM
[14] = second compound 0.316 µM, first compound 0.1 µM
[15] = second compound 0.316 µM, first compound 0.316 µM
[16] = second compound 0.316 µM, first compound 1 µM
[17] = second compound 0.316 µM, first compound 3.16 µM
[18] = second compound 0.316 µM, first compound 10 µM
[19] = second compound 1 µM, first compound 0.0316 µM
[20] = second compound 1 µM, first compound 0.1 µM
[21] = second compound 1 µM, first compound 0.316 µM
[22] = second compound 1 µM, first compound 1 µM
[23] = second compound 1 µM, first compound 3.16 µM
[24] = second compound 1 µM, first compound 10 µM
[25] = second compound 3.16 µM, first compound 0.0316 µM
[26] = second compound 3.16 µM, first compound 0.1 µM
[27] = second compound 3.16 µM, first compound 0.316 µM
[28] = second compound 3.16 µM, first compound 1 µM
[29] = second compound 3.16 µM, first compound 3.16 µM
[30] = second compound 3.16 µM, first compound 10 µM
[31] = second compound 10 µM, first compound 0.0316 µM
[32] = second compound 10 µM, first compound 0.1 µM
[33] = second compound 10 µM, first compound 0.316 µM
[34] = second compound 10 µM, first compound 1 µM
[35] = second compound 10 µM, first compound 3.16 µM
[36] = second compound 10 µM, first compound 10 µM
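Note: spheroids exposed to agents for 7 days before viability reading.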
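Throughout, for viability, T/C: percent of DMSO vehicle control viability so 100% = vehicle and 0% = no viable signal.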

## COc1cc2cc(C(=O)CCC(=O)O)sc2cc1OC + COC1C(OC(N)=O)C(O)C(Oc2ccc3c(O)c(NC(=O)c4ccc(O)c(CC=C(C)C)c4)c(=O)oc3c2C)OC1(C)C
Second compound 0.0316 µM
  IC50: > 10 µM
Second compound 0.1 µM
  IC50: > 10 µM
Second compound 0.316 µM
  IC50: > 10 µM
Second compound 1 µM
  IC50: > 10 µM
Second compound 3.16 µM
  IC50: > 10 µM
Second compound 10 µM
  IC50: > 10 µM
[1]
  viability, T/C: 104%
[2]
  viability, T/C: 113%
[3]
  viability, T/C: 97.1%
[4]
  viability, T/C: 95.8%
[5]
  viability, T/C: 106%
[6]
  viability, T/C: 103%
[7]
  viability, T/C: 91.2%
[8]
  viability, T/C: 109%
[9]
  viability, T/C: 94.3%
[10]
  viability, T/C: 93.7%
[11]
  viability, T/C: 103%
[12]
  viability, T/C: 97.5%
[13]
  viability, T/C: 107%
[14]
  viability, T/C: 110%
[15]
  viability, T/C: 105%
[16]
  viability, T/C: 108%
[17]
  viability, T/C: 101%
[18]
  viability, T/C: 95.8%
[19]
  viability, T/C: 110%
[20]
  viability, T/C: 105%
[21]
  viability, T/C: 93%
[22]
  viability, T/C: 102%
[23]
  viability, T/C: 98.6%
[24]
  viability, T/C: 103%
[25]
  viability, T/C: 110%
[26]
  viability, T/C: 98.6%
[27]
  viability, T/C: 107%
[28]
  viability, T/C: 92.4%
[29]
  viability, T/C: 109%
[30]
  viability, T/C: 102%
[31]
  viability, T/C: 113%
[32]
  viability, T/C: 100%
[33]
  viability, T/C: 120%
[34]
  viability, T/C: 107%
[35]
  viability, T/C: 98.8%
[36]
  viability, T/C: 106%

## O=C(Nc1ccc(O)c(NS(=O)(=O)c2ccc(F)cc2)c1)c1ccc(-c2ccccc2)cc1 + COC1C(OC(N)=O)C(O)C(Oc2ccc3c(O)c(NC(=O)c4ccc(O)c(CC=C(C)C)c4)c(=O)oc3c2C)OC1(C)C
Second compound 0.0316 µM
  IC50: > 10 µM
Second compound 0.1 µM
  IC50: > 10 µM
Second compound 0.316 µM
  IC50: > 10 µM
Second compound 1 µM
  IC50: > 10 µM
Second compound 3.16 µM
  IC50: > 10 µM
Second compound 10 µM
  IC50: > 10 µM
[1]
  viability, T/C: 105%
[2]
  viability, T/C: 123%
[3]
  viability, T/C: 117%
[4]
  viability, T/C: 104%
[5]
  viability, T/C: 122%
[6]
  viability, T/C: 80.8%
[7]
  viability, T/C: 103%
[8]
  viability, T/C: 104%
[9]
  viability, T/C: 117%
[10]
  viability, T/C: 101%
[11]
  viability, T/C: 101%
[12]
  viability, T/C: 94.6%
[13]
  viability, T/C: 103%
[14]
  viability, T/C: 101%
[15]
  viability, T/C: 95.7%
[16]
  viability, T/C: 101%
[17]
  viability, T/C: 117%
[18]
  viability, T/C: 77.3%
[19]
  viability, T/C: 115%
[20]
  viability, T/C: 99.6%
[21]
  viability, T/C: 97.2%
[22]
  viability, T/C: 94.5%
[23]
  viability, T/C: 103%
[24]
  viability, T/C: 82.3%
[25]
  viability, T/C: 108%
[26]
  viability, T/C: 111%
[27]
  viability, T/C: 113%
[28]
  viability, T/C: 119%
[29]
  viability, T/C: 105%
[30]
  viability, T/C: 89.5%
[31]
  viability, T/C: 95.3%
[32]
  viability, T/C: 107%
[33]
  viability, T/C: 102%
[34]
  viability, T/C: 95.5%
[35]
  viability, T/C: 103%
[36]
  viability, T/C: 86.3%
